Measured values taken from patent US8791108B2, “Inhibitors of human immunodeficiency virus replication” (priority 2011, dated 2014).
pEC50: −log10 of the molar value.

Each compound was assayed on recombinant NL-Rluc virus (assay: Inhibition of HIV replication (NL-RLuc luciferase reporter virus, MT-2 cells)). Conditions: Human immunodeficiency virus 1, MT2, 120 h, read-out: Activity.
Type: cell-based
With `Cc1nc2cc(C(=O)NCC3CCOCC3)nn2c(-c2cc(F)c3c(c2C)CCCO3)c1[C@H](OC(C)(C)C)C(=O)O` [Example 101, (2S)-2-(tert-butoxy)-2-(7-(8-fluoro-5-methylchroman-6-yl)-5-methyl-2-(((tetrahydro-2H-pyran-4-yl)methyl)carbamoyl)pyrazolo[1,5-a]pyrimidin-6-yl)acetic acid] the pEC50 was 6.00 to 7.00. Compound `Cc1nc2cc(C(=O)NCCOC(C)C)nn2c(-c2cc(F)c3c(c2C)CCCO3)c1[C@H](OC(C)(C)C)C(=O)O` [Example 102, (2S)-2-(tert-butoxy)-2-(7-(8-fluoro-5-methylchroman-6-yl)-2-((2-isopropoxyethyl)carbamoyl)-5-methylpyrazolo[1,5-a]pyrimidin-6-yl)acetic acid] has a pEC50 greater than 7.00. In the case of `Cc1nc2cc(C(=O)NCCOC(C)(C)C)nn2c(-c2cc(F)c3c(c2C)CCCO3)c1[C@H](OC(C)(C)C)C(=O)O` [Example 103, (2S)-2-(tert-butoxy)-2-(2-((2-(tert-butoxy)ethyl)carbamoyl)-7-(8-fluoro-5-methylchroman-6-yl)-5-methylpyrazolo[1,5-a]pyrimidin-6-yl)acetic acid], the pEC50 was 6.00 to 7.00. With `Cc1nc2cc(C(=O)NCc3ccccn3)nn2c(-c2cc(F)c3c(c2C)CCCO3)c1[C@H](OC(C)(C)C)C(=O)O` [Example 104, (2S)-2-(tert-butoxy)-2-(7-(8-fluoro-5-methylchroman-6-yl)-5-methyl-2-((pyridin-2-ylmethyl)carbamoyl)pyrazolo[1,5-a]pyrimidin-6-yl)acetic acid] the pEC50 was less than 6.00. `Cc1nc2cc(C(=O)N3CCC(Cc4ccccc4)CC3)nn2c(-c2cc(F)c3c(c2C)CCCO3)c1[C@H](OC(C)(C)C)C(=O)O` [Example 105, (2S)-2-(2-(4-benzylpiperidine-1-carbonyl)-7-(8-fluoro-5-methylchroman-6-yl)-5-methylpyrazolo[1,5-a]pyrimidin-6-yl)-2-(tert-butoxy)acetic acid] gave a pEC50 greater than 7.00. Compound `Cc1nc2cc(C(=O)N3CCC(CCO)CC3)nn2c(-c2cc(F)c3c(c2C)CCCO3)c1[C@H](OC(C)(C)C)C(=O)O` [Example 106, (2S)-2-(tert-butoxy)-2-(7-(8-fluoro-5-methylchroman-6-yl)-2-(4-(2-hydroxyethyl)piperidine-1-carbonyl)-5-methylpyrazolo[1,5-a]pyrimidin-6-yl)acetic acid] has a pEC50 of less than 6.00. Compound `Cc1nc2cc(C(=O)NCCCN3CCOCC3)nn2c(-c2cc(F)c3c(c2C)CCCO3)c1[C@H](OC(C)(C)C)C(=O)O` [Example 107] has a pEC50 of less than 6.00. `Cc1nc2cc(C(=O)NCc3ccc(Cl)cc3Cl)nn2c(-c2cc(F)c3c(c2C)CCCO3)c1[C@H](OC(C)(C)C)C(=O)O` [Example 108, (2S)-2-(tert-butoxy)-2-(2-((2,4-dichlorobenzyl)carbamoyl)-7-(8-fluoro-5-methylchroman-6-yl)-5-methylpyrazolo[1,5-a]pyrimidin-6-yl)acetic acid] showed a pEC50 greater than 7.00. `Cc1nc2cc(C(=O)NCc3ccc(Cl)c(Cl)c3)nn2c(-c2cc(F)c3c(c2C)CCCO3)c1[C@H](OC(C)(C)C)C(=O)O` [Example 109, (2S)-2-(tert-butoxy)-2-(2-((3,4-dichlorobenzyl)carbamoyl)-7-(8-fluoro-5-methylchroman-6-yl)-5-methylpyrazolo[1,5-a]pyrimidin-6-yl)acetic acid] gave a pEC50 greater than 7.00. For `COc1ccc(CNC(=O)c2cc3nc(C)c([C@H](OC(C)(C)C)C(=O)O)c(-c4cc(F)c5c(c4C)CCCO5)n3n2)cc1` [Example 110, (2S)-2-(tert-butoxy)-2-(7-(8-fluoro-5-methylchroman-6-yl)-2-((4-methoxybenzyl)carbamoyl)-5-methylpyrazolo[1,5-a]pyrimidin-6-yl)acetic acid], the pEC50 was greater than 7.00. In the case of `Cc1nc2cc(C(=O)NCCc3ccccc3Cl)nn2c(-c2cc(F)c3c(c2C)CCCO3)c1[C@H](OC(C)(C)C)C(=O)O` [Example 111, (2S)-2-(tert-butoxy)-2-(2-((2-chlorophenethyl)carbamoyl)-7-(8-fluoro-5-methylchroman-6-yl)-5-methylpyrazolo[1,5-a]pyrimidin-6-yl)acetic acid], the pEC50 was greater than 7.00. Work on `Cc1nc2cc(C(=O)NCCc3ccc(Cl)cc3)nn2c(-c2cc(F)c3c(c2C)CCCO3)c1[C@H](OC(C)(C)C)C(=O)O` [Example 112, (2S)-2-(tert-butoxy)-2-(2-((4-chlorophenethyl)carbamoyl)-7-(8-fluoro-5-methylchroman-6-yl)-5-methylpyrazolo[1,5-a]pyrimidin-6-yl)acetic acid] yielded a pEC50 greater than 7.00. For `Cc1nc2cc(C(=O)N(Cc3ccccc3)C(C)C)nn2c(-c2cc(F)c3c(c2C)CCCO3)c1[C@H](OC(C)(C)C)C(=O)O` [Example 113, (2S)-2-(2-(benzyl(isopropyl)carbamoyl)-7-(8-fluoro-5-methylchroman-6-yl)-5-methylpyrazolo[1,5-a]pyrimidin-6-yl)-2-(tert-butoxy)acetic acid], the pEC50 was greater than 7.00. With `CCCCNC(=O)c1cc2nc(C)c([C@H](OC(C)(C)C)C(=O)O)c(-c3cc(F)c4c(c3C)CCCO4)n2n1` [Example 114, (2S)-2-(tert-butoxy)-2-(2-(butylcarbamoyl)-7-(8-fluoro-5-methylchroman-6-yl)-5-methylpyrazolo[1,5-a]pyrimidin-6-yl)acetic acid] the pEC50 was greater than 7.00. In the case of `Cc1nc2cc(C(=O)N(C)Cc3ccc(Cl)c(Cl)c3)nn2c(-c2cc(F)c3c(c2C)CCCO3)c1[C@H](OC(C)(C)C)C(=O)O` [Example 115, (2S)-2-(tert-butoxy)-2-(2-((3,4-dichlorobenzyl)(methyl)carbamoyl)-7-(8-fluoro-5-methylchroman-6-yl)-5-methylpyrazolo[1,5-a]pyrimidin-6-yl)acetic acid], the pEC50 was greater than 7.00. `Cc1nc2cc(C(=O)N3CCN(c4ccc(Cl)cc4)CC3)nn2c(-c2cc(F)c3c(c2C)CCCO3)c1[C@H](OC(C)(C)C)C(=O)O` [Example 116, (2S)-2-(tert-butoxy)-2-(2-(4-(4-chlorophenyl)piperazine-1-carbonyl)-7-(8-fluoro-5-methylchroman-6-yl)-5-methylpyrazolo[1,5-a]pyrimidin-6-yl)acetic acid] showed a pEC50 greater than 7.00. `Cc1nc2cc(C(=O)NCc3cccc(Cl)c3Cl)nn2c(-c2cc(F)c3c(c2C)CCCO3)c1[C@H](OC(C)(C)C)C(=O)O` [Example 117, (2S)-2-(tert-butoxy)-2-(2-((2,3-dichlorobenzyl)carbamoyl)-7-(8-fluoro-5-methylchroman-6-yl)-5-methylpyrazolo[1,5-a]pyrimidin-6-yl)acetic acid] was tested, and the pEC50 was greater than 7.00. With `Cc1nc2cc(C(=O)NCc3cc(Cl)cc(Cl)c3)nn2c(-c2cc(F)c3c(c2C)CCCO3)c1[C@H](OC(C)(C)C)C(=O)O` [Example 118, (2S)-2-(tert-butoxy)-2-(2-((3,5-dichlorobenzyl)carbamoyl)-7-(8-fluoro-5-methylchroman-6-yl)-5-methylpyrazolo[1,5-a]pyrimidin-6-yl)acetic acid] the pEC50 was greater than 7.00. In the case of `Cc1nc2cc(C(=O)NCCc3nc4ccccc4s3)nn2c(-c2cc(F)c3c(c2C)CCCO3)c1[C@H](OC(C)(C)C)C(=O)O` [Example 119, (2S)-2-(2-((2-(benzo[d]thiazol-2-yl)ethyl)carbamoyl)-7-(8-fluoro-5-methylchroman-6-yl)-5-methylpyrazolo[1,5-a]pyrimidin-6-yl)-2-(tert-butoxy)acetic acid], the pEC50 was greater than 7.00. Work on `Cc1nc2cc(C(=O)NCc3ccc(Cl)c(C(F)(F)F)c3)nn2c(-c2cc(F)c3c(c2C)CCCO3)c1[C@H](OC(C)(C)C)C(=O)O` [Example 120, (2S)-2-(tert-butoxy)-2-(2-((4-chloro-3-(trifluoromethyl)benzyl)carbamoyl)-7-(8-fluoro-5-methylchroman-6-yl)-5-methylpyrazolo[1,5-a]pyrimidin-6-yl)acetic acid] yielded a pEC50 greater than 7.00. With `Cc1nc2cc(C(=O)NCc3ccc(C#N)cc3)nn2c(-c2cc(F)c3c(c2C)CCCO3)c1[C@H](OC(C)(C)C)C(=O)O` [Example 121, (2S)-2-(tert-butoxy)-2-(2-((4-cyanobenzyl)carbamoyl)-7-(8-fluoro-5-methylchroman-6-yl)-5-methylpyrazolo[1,5-a]pyrimidin-6-yl)acetic acid] the pEC50 was 6.00 to 7.00. With `Cc1nc2cc(C(=O)NCc3nc4ccccc4s3)nn2c(-c2cc(F)c3c(c2C)CCCO3)c1[C@H](OC(C)(C)C)C(=O)O` [Example 122, (2S)-2-(2-((benzo[d]thiazol-2-ylmethyl)carbamoyl)-7-(8-fluoro-5-methylchroman-6-yl)-5-methylpyrazolo[1,5-a]pyrimidin-6-yl)-2-(tert-butoxy)acetic acid] the pEC50 was greater than 7.00. With `Cc1nc2cc(C(=O)Nc3ccccc3)nn2c(-c2cc(F)c3c(c2C)CCCO3)c1[C@H](OC(C)(C)C)C(=O)O` [Example 123, (2S)-2-(tert-butoxy)-2-(7-(8-fluoro-5-methylchroman-6-yl)-5-methyl-2-(phenylcarbamoyl)pyrazolo[1,5-a]pyrimidin-6-yl)acetic acid] the pEC50 was greater than 7.00. Compound `CCCNC(=O)c1cc2nc(C)c([C@H](OC(C)(C)C)C(=O)O)c(-c3cc(F)c4c(c3C)CCCO4)n2n1` [Example 124, (2S)-2-(tert-butoxy)-2-(7-(8-fluoro-5-methylchroman-6-yl)-5-methyl-2-(propylcarbamoyl)pyrazolo[1,5-a]pyrimidin-6-yl)acetic acid] has a pEC50 of 6.00 to 7.00. Work on `Cc1nc2cc(C(=O)NCc3ccccc3C(F)(F)F)nn2c(-c2cc(F)c3c(c2C)CCCO3)c1[C@H](OC(C)(C)C)C(=O)O` [Example 125, (2S)-2-(tert-butoxy)-2-(7-(8-fluoro-5-methylchroman-6-yl)-5-methyl-2-((2-(trifluoromethyl)benzyl)carbamoyl)pyrazolo[1,5-a]pyrimidin-6-yl)acetic acid] yielded a pEC50 greater than 7.00. With `Cc1nc2cc(C(=O)NCC34C[C@H]5C[C@@H](C3)C[C@@H](C4)C5)nn2c(-c2cc(F)c3c(c2C)CCCO3)c1[C@H](OC(C)(C)C)C(=O)O` [Example 126, (2S)-2-(2-(((3S,5S,7S)-adamantan-1-ylmethyl)carbamoyl)-7-(8-fluoro-5-methylchroman-6-yl)-5-methylpyrazolo[1,5-a]pyrimidin-6-yl)-2-(tert-butoxy)acetic acid] the pEC50 was greater than 7.00. `Cc1nc2cc(C(=O)NCC(C)(C)C)nn2c(-c2cc(F)c3c(c2C)CCCO3)c1[C@H](OC(C)(C)C)C(=O)O` [Example 127, (2S)-2-(tert-butoxy)-2-(7-(8-fluoro-5-methylchroman-6-yl)-5-methyl-2-(neopentylcarbamoyl)pyrazolo[1,5-a]pyrimidin-6-yl)acetic acid] showed a pEC50 of 6.00 to 7.00.

Same assay, conditions: Human immunodeficiency virus 1, MT2, 120 h, read-out: EC50 μM
With `Cc1nc2cc(C(=O)NCCOC(C)(C)C)nn2c(-c2cc(F)c3c(c2C)CCCO3)c1[C@H](OC(C)(C)C)C(=O)O` [Example 103, (2S)-2-(tert-butoxy)-2-(2-((2-(tert-butoxy)ethyl)carbamoyl)-7-(8-fluoro-5-methylchroman-6-yl)-5-methylpyrazolo[1,5-a]pyrimidin-6-yl)acetic acid] the EC50 was 0.073 µM. `Cc1nc2cc(C(=O)NCc3ccc(Cl)cc3Cl)nn2c(-c2cc(F)c3c(c2C)CCCO3)c1[C@H](OC(C)(C)C)C(=O)O` [Example 108, (2S)-2-(tert-butoxy)-2-(2-((2,4-dichlorobenzyl)carbamoyl)-7-(8-fluoro-5-methylchroman-6-yl)-5-methylpyrazolo[1,5-a]pyrimidin-6-yl)acetic acid] gave an EC50 of 0.013 µM.
